Active and inactive are the calls of the source.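 The calls were made as follows: active = phosphatase PP5 activity blocked by at least 30% at 50 µM; inactive = the rest.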

Sequence of Serine/threonine-protein phosphatase 5 (Homo sapiens) (P53041 whole entry, looked up, the tested form may be a part): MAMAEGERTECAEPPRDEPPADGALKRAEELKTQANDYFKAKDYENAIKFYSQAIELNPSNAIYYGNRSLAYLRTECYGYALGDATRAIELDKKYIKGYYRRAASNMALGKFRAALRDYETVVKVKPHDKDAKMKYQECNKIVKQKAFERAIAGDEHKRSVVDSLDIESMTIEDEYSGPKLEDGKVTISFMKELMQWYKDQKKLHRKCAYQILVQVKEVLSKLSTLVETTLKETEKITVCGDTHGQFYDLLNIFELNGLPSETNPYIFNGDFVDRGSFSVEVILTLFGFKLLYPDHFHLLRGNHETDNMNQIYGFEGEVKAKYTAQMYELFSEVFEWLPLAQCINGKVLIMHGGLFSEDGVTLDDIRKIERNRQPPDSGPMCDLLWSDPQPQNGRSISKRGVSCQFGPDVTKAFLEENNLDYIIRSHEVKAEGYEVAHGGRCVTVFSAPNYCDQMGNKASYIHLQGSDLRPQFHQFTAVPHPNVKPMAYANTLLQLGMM

The assay addresses Serine/threonine-protein phosphatase 5 (Homo sapiens) (UniProt P53041). Nature of the assay: inhibitors of PP5 catalytic domain activity – biochemical, radiolabel, 33P-phosphohistone substrate, powder samples, selectivity assay for PP1 inhibitor project, late-stage follow-up (AID 652229). To be noted: purified PP5c, 33P-phosphohistone dephosphorylation, scintillation; at 50 µM; stronger effect = higher value.
For orientation: inhibition means the relative decrease from the control value, in per cent. As to `Oc1c(C(c2ccccn2)N2CCNCC2)cc(Cl)c2cccnc12` (configuration not stated), the inhibition is 6.84% (inactive).
The value for `CC1CCN(C(c2ccccn2)c2cc(Cl)c3cccnc3c2O)CC1` (configuration not stated) was 6.08% (inactive); that for `Oc1c(C(c2ccccn2)N2CCN(c3ccccc3F)CC2)cc(Cl)c2cccnc12` (configuration not stated) was -0.6% (inactive).
The value for `CN1CCN(C(c2ccccn2)c2cc(Cl)c3cccnc3c2O)CC1` (configuration not stated) was 3.05% (inactive); that for `CCN1CCN(C(c2ccccn2)c2cc(Cl)c3cccnc3c2O)CC1` (configuration not stated) was 3.21% (inactive); that for `CC(C)(C)OC(=O)N1CCN(C(c2ccccn2)c2cc(Cl)c3cccnc3c2O)CC1` (configuration not stated) was 0.25% (inactive).
Consider `Oc1c(C(c2ccccn2)N2CCC(Cc3ccccc3)CC2)cc(Cl)c2cccnc12` (configuration not stated), for which the inhibition was 4.23% (inactive).

The values above are taken from PubChem BioAssay AID652229 (The Scripps Research Institute Molecular Screening Center, 2013).
